Measured values published in the supplement of paper PMC9663587.

Key:
Test in all cases: GR value, 72 h; higher = faster growth (1 = untreated, <0 = killing);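 further: breast cancer and non-malignant breast epithelial lines, nine half-log doses, viable cells counted by Hoechst and LIVE/DEAD dye imaging versus time-zero plates and DMSO controls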
Torin2 = compound: C1=CC(=CC(=C1)N2C(=O)C=CC3=CN=C4C=CC(=CC4=C32)C5=CN=C(C=C5)N)C(F)(F)F [Torin2]
AZD1775 = compound: C=CCn1c(=O)c2cnc(Nc3ccc(N4CCN(C)CC4)cc3)nc2n1-c1cccc(C(C)(C)O)n1 [AZD1775]
[1] = compound: CC(=O)Nc1cccc(-n2c(=O)n(C3CC3)c(=O)c3c(Nc4ccc(I)cc4F)n(C)c(=O)c(C)c32)c1
SHP099 = compound: CC1(CCN(CC1)C2=CN=C(C(=N2)N)C3=C(C(=CC=C3)Cl)Cl)N [SHP099]
senexin b = compound: CN1CCN(C(=O)c2ccc3cc(CCNc4ncnc5ccc(C#N)cc45)ccc3c2)CC1 [senexin b]
Rucaparib = compound: CNCc1ccc(-c2[nH]c3cc(F)cc4c3c2CCNC4=O)cc1 [Rucaparib]
Everolimus = compound: CO[C@H]1C[C@@H]2CC[C@@H](C)[C@@](O)(O2)C(=O)C(=O)N2CCCC[C@H]2C(=O)O[C@H]([C@H](C)C[C@@H]2CC[C@@H](OCCO)[C@H](OC)C2)CC(=O)[C@H](C)/C=C(\C)[C@@H](O)[C@@H](OC)C(=O)[C@H](C)C[C@H](C)/C=C/C=C/C=C/1C [Everolimus]
[2] = compound: COc1ccc2c(c1)[C@]1(C[C@H]1c1ccc3c(/C=C/c4ccc(CN5C[C@@H](C)O[C@@H](C)C5)cc4)n[nH]c3c1)C(=O)N2
Pictilisib/GDC0941 = compound: CS(=O)(=O)N1CCN(Cc2cc3nc(-c4cccc5[nH]ncc45)nc(N4CCOCC4)c3s2)CC1 [Pictilisib/GDC0941]
Taselisib/GDC0032 = compound: Cc1nc(-c2cn3c(n2)-c2ccc(-c4cnn(C(C)(C)C(N)=O)c4)cc2OCC3)n(C(C)C)n1 [Taselisib/GDC0032]
Dasatinib = compound: Cc1nc(Nc2ncc(C(=O)Nc3c(C)cccc3Cl)s2)cc(N2CCN(CCO)CC2)n1 [Dasatinib]

For AU565, the GR value (Torin2; 0.0001 µM) was 1.06 GR, the GR value (Torin2; 0.0003162 µM) was 1.02 GR and the GR value (Torin2; 0.001 µM) was 0.884 GR. For the same cell line, the GR value (Torin2; 0.003162 µM) was 0.698 GR, the GR value (Torin2; 0.01 µM) was 0.222 GR and the GR value (Torin2; 0.03162 µM) was -0.0323 GR. The GR value (Torin2; 0.1 µM) was -0.152 GR, the GR value (Torin2; 0.3162 µM) was -0.239 GR and the GR value (Torin2; 1 µM) was -0.395 GR. For the same cell line, the GR value (AZD1775; 0.001 µM) was 0.879 GR, the GR value (AZD1775; 0.003162 µM) was 0.913 GR and the GR value (AZD1775; 0.01 µM) was 0.779 GR. It also gave a GR value (AZD1775; 0.03162 µM) of 0.585 GR, a GR value (AZD1775; 0.1 µM) of 0.612 GR and a GR value (AZD1775; 0.3162 µM) of 0.521 GR. The GR value (AZD1775; 1 µM) was 0.288 GR, the GR value (AZD1775; 3.162 µM) was 0.207 GR and the GR value (AZD1775; 10 µM) was -0.514 GR. It also gave a GR value ([1]; 0.0001 µM) of 1.05 GR, a GR value ([1]; 0.0003162 µM) of 0.96 GR and a GR value ([1]; 0.001 µM) of 1.08 GR. It also gave a GR value ([1]; 0.003162 µM) of 1.05 GR, a GR value ([1]; 0.01 µM) of 1.02 GR and a GR value ([1]; 0.03162 µM) of 0.968 GR. It also gave a GR value ([1]; 0.1 µM) of 1.08 GR, a GR value ([1]; 0.3162 µM) of 1.02 GR and a GR value ([1]; 1 µM) of 1.01 GR. For the same cell line, the GR value (SHP099; 0.001 µM) was 0.972 GR, the GR value (SHP099; 0.003162 µM) was 0.94 GR and the GR value (SHP099; 0.01 µM) was 0.815 GR. It also gave a GR value (SHP099; 0.03162 µM) of 1.07 GR, a GR value (SHP099; 0.1 µM) of 1 GR and a GR value (SHP099; 0.3162 µM) of 0.949 GR. It also gave a GR value (SHP099; 1 µM) of 0.925 GR, a GR value (SHP099; 3.162 µM) of 0.932 GR and a GR value (SHP099; 10 µM) of 0.939 GR. The GR value (senexin b; 0.001 µM) was 1.02 GR, the GR value (senexin b; 0.003162 µM) was 0.919 GR and the GR value (senexin b; 0.01 µM) was 0.88 GR. For the same cell line, the GR value (senexin b; 0.03162 µM) was 1.05 GR, the GR value (senexin b; 0.1 µM) was 0.897 GR and the GR value (senexin b; 0.3162 µM) was 0.904 GR. For the same cell line, the GR value (senexin b; 1 µM) was 0.786 GR, the GR value (senexin b; 3.162 µM) was 0.768 GR and the GR value (senexin b; 10 µM) was 0.913 GR. The GR value (Rucaparib; 0.001 µM) was 0.952 GR, the GR value (Rucaparib; 0.003162 µM) was 1.09 GR and the GR value (Rucaparib; 0.01 µM) was 0.804 GR. The GR value (Rucaparib; 0.03162 µM) was 0.916 GR, the GR value (Rucaparib; 0.1 µM) was 0.925 GR and the GR value (Rucaparib; 0.3162 µM) was 0.845 GR. It also gave a GR value (Rucaparib; 1 µM) of 1.01 GR, a GR value (Rucaparib; 3.162 µM) of 0.932 GR and a GR value (Rucaparib; 10 µM) of 0.714 GR. For the same cell line, the GR value (Everolimus; 0.001 µM) was 0.523 GR, the GR value (Everolimus; 0.003162 µM) was 0.451 GR and the GR value (Everolimus; 0.01 µM) was 0.429 GR. The GR value (Everolimus; 0.03162 µM) was 0.494 GR, the GR value (Everolimus; 0.1 µM) was 0.396 GR and the GR value (Everolimus; 0.3162 µM) was 0.509 GR. It also gave a GR value (Everolimus; 1 µM) of 0.408 GR, a GR value (Everolimus; 3.162 µM) of 0.454 GR and a GR value (Everolimus; 10 µM) of 0.398 GR. The GR value ([2]; 0.0001 µM) was 0.968 GR, the GR value ([2]; 0.0003162 µM) was 0.96 GR and the GR value ([2]; 0.001 µM) was 0.874 GR. For the same cell line, the GR value ([2]; 0.003162 µM) was 0.602 GR, the GR value ([2]; 0.01 µM) was -0.128 GR and the GR value ([2]; 0.03162 µM) was -0.147 GR. The GR value ([2]; 0.1 µM) was -0.161 GR, the GR value ([2]; 0.3162 µM) was -0.168 GR and the GR value ([2]; 1 µM) was -0.109 GR. It also gave a GR value (Pictilisib/GDC0941; 0.001 µM) of 0.964 GR, a GR value (Pictilisib/GDC0941; 0.003162 µM) of 0.961 GR and a GR value (Pictilisib/GDC0941; 0.01 µM) of 0.898 GR. The GR value (Pictilisib/GDC0941; 0.03162 µM) was 0.642 GR, the GR value (Pictilisib/GDC0941; 0.1 µM) was 0.37 GR and the GR value (Pictilisib/GDC0941; 0.3162 µM) was 0.101 GR. It also gave a GR value (Pictilisib/GDC0941; 1 µM) of -0.096 GR, a GR value (Pictilisib/GDC0941; 3.162 µM) of -0.251 GR and a GR value (Pictilisib/GDC0941; 10 µM) of -0.391 GR. The GR value (Taselisib/GDC0032; 0.001 µM) was 0.728 GR, the GR value (Taselisib/GDC0032; 0.003162 µM) was 0.58 GR and the GR value (Taselisib/GDC0032; 0.01 µM) was 0.208 GR. It also gave a GR value (Taselisib/GDC0032; 0.03162 µM) of -0.0424 GR, a GR value (Taselisib/GDC0032; 0.1 µM) of -0.111 GR and a GR value (Taselisib/GDC0032; 0.3162 µM) of -0.171 GR. For the same cell line, the GR value (Taselisib/GDC0032; 1 µM) was -0.209 GR, the GR value (Taselisib/GDC0032; 3.162 µM) was -0.225 GR and the GR value (Taselisib/GDC0032; 10 µM) was -0.538 GR. For the same cell line, the GR value (Dasatinib; 0.001 µM) was 0.873 GR, the GR value (Dasatinib; 0.003162 µM) was 0.908 GR and the GR value (Dasatinib; 0.01 µM) was 0.966 GR. For the same cell line, the GR value (Dasatinib; 0.03162 µM) was 0.961 GR, the GR value (Dasatinib; 0.1 µM) was 0.877 GR and the GR value (Dasatinib; 0.3162 µM) was 0.963 GR. The GR value (Dasatinib; 1 µM) was 0.875 GR, the GR value (Dasatinib; 3.162 µM) was 0.73 GR and the GR value (Dasatinib; 10 µM) was 0.274 GR.
